Source: patent US5229419A, “Chemotherapeutically active acetogenins” (Purdue Research Foundation, priority 1992, dated 1993)
≈ marks a conversion by molar mass, not a printed value. Where two headings read alike, the source gives them in different places.

Key:
3PS lymphocytic leukemia = conditions: 0.0125 mg/kg; cited from earlier work
[1] = system: 9KB (human nasopharyngeal carcinoma); conditions: cited from earlier work
[2] = system: 9PS (murine lymphocytic leukemia); conditions: cited from earlier work
stripped cucumber beetle = conditions: cited from earlier work
Mexican bean beetle = conditions: cited from earlier work
mosquito larvae = conditions: cited from earlier work
blow fly larvae = conditions: cited from earlier work
melon aphid = conditions: cited from earlier work
two spotted spider mites = conditions: cited from earlier work
[3] = system: free-living nematode, Caenorabditis elegans; conditions: cited from earlier work
mice = conditions: cited from earlier work
[4] = system: P-388 lymphocytic leukemia; conditions: cited from earlier work
[5] = system: P-388 (PS) lymphocytic leukemia; conditions: cited from earlier work
[6] = system: brine shrimp (Artemia salina Leach); experiment: whole plant or invertebrate; format: in vivo; conditions: 24 hrs, read-out: BST LC50
Method: The extracts, fractions, and isolated compounds were routinely evaluated for lethality to brine shrimp larvae (BST). The LC50 of brine shrimp (Artemia salina Leach) was determined by substantially the same method described by Meyer et al. [Planta Med., 45: 31-34 (1982)]. The test sample was dissolved in solvent and added to 2-dram vials in an amount to provide 1000, 100, 10, 1, etc. p.p.m. of material in the final brine preparation, assuming complete miscibility in the brine. The vials were dried in vacuo, and artificial sea water, prepared from a commercial salt mixture, was added. Ten brine shrimp larva (nauplii), 48-72 hrs. old, were introduced to the vial, and the volume was made up to 5 ml. with the sea water. After 24 hrs., the percent mortality was computed. Subsequently, LC50 values and 95% confidence limits were calculated by a Finney probit analysis to permit comparison of potencies of extracts and fractions.
(§1) Anticancer activity is a potential use even for the crude extract. The bioassay results for the lethality of brine shrimp (BST), the inhibition of crown gall tumors on potato discs (PD), the reversal in morphology of db-cAMP induced AC glioma cells from that of mature, differentiated astrocytes to that of immature AC glioma cells (mouse brain cells) (9ASK), the dose that inhibits cell growth to one-half that of untreated poorly differentiated human epidermic carcinoma (9KB), the dose that inhibits cell growth to one-half that of a methylcholanthrene-induced lymphoid neoplasm in a DBA/2 mouse (9PS), and the percent displacement in a protein kinase C test for initial extract fractions are shown in Table 1. Obviously, the bioactivity is concentrated in F005.

[7] = system: A-549 (human lung carcinoma); experiment: A-549 cytotoxicity; format: cell-based; conditions: A549, read-out: A549 ED50
Method: (§2) Occasional checks in the potato disc (PD) assay assured us that antitumor activity was present [Ferrigni et al., J. Nat. Prod., 45; 679-686 (1982)]. Cytotoxicity tests were performed at the Purdue Cell Culture Laboratory, Purdue Cancer Center, using standard protocols for 9KB (human nasopharyngeal carcinoma) and 9PS (a chemically-induced murine lymphocytic leukemia) [Suffness et al., Methods In Cancer Research. Vol. 16: 73 (1979), V. T. DeVita, Jr. and H. Busch eds., Academic Press, New York], 9ASK (astrocytoma reversal) [Lgarashi et al., Cell Struct. and Funct., 3: 107 (1978)], A-549 (human lung carcinoma) [Giard et al., J. Nat. Cancer Inst., 51: 1417-1423 (1973)], and HT-29 (human colon adenocarcinoma) [Fogh J. (ed.), Human Tumor Cells, In Vitro, Plenum Press, New York: 115-159 (1975)].
(§3) These two compounds are the most bioactive acetogenins reported to this date. But the safety range for treatments might be larger. In this table, two cytotoxicity tests against human tumor cell lines such as the human lung carcinoma (A-549) [Giard et al., J. Nat. Cancer Inst. 51: 1417-1423 (1973)] and the human colon adenocarcinoma (HT-29) [Fogh, J. (ed.) Human Tumor Cells, In Vitro, pp. 115-159, Plenum Press, New York (1975)] have been performed. […] The mode of action for the acetogenins is still unknown, but it is postulated to involve cell membranes.

[8] = system: HT-29 (human colon adenocarcinoma); experiment: HT-29 cytotoxicity; format: cell-based; conditions: HT-29, read-out: HT29 ED50
Method: as §2, §3

[9] = system: 9KB (human nasopharyngeal carcinoma); experiment: 9KB cytotoxicity; format: cell-based
Method: as §2, §1

[10] = system: 9PS (murine lymphocytic leukemia); experiment: 9PS cytotoxicity; format: cell-based; conditions: Mus musculus; read-out: 9PS ED50
Method: as §2, §1

human tumor cell lines = experiment: selectivity of cytotoxicity between human tumor cell lines A-549 and HT-29; format: cell-based; conditions: compared with bullatacin; A-549 vs HT-29
Excerpt: as §3

indicator organisms = experiment: pesticidal bioassays, overall; conditions: in vivo
Method: Pesticidal bioassays were conducted at Eli Lilly Laboratories (Greenfield, Ind.) following standard procedures with eight indicator organisms: mosquito larvae (ML) Aedes aegypti (in the media), blowfly larvae (BFL) (1% in the diet), corn root worm (CRW) Diabrotics undecimcuntata howardii (in soil), two-spotted spider mite (2SSM) Tetranychus urticae (on foliage), southern army worm (SAW) Spodoptera eridania (on foliage), melon aphid (MA) (5000 ppm on foliage), cotton aphid (CA) Aphis gossypii, (on foliage) and Haemonchus contortus (HC) (a nematode, 0.1% in the media).
The compounds can be formulated at concentrations of about 1 to about 200 ppm in conventional liquid or solid forms for application to pest infected areas.

PS = conditions: cited from earlier work

CCCCCCCCCCC(O)C1CCC(C2CCC(C(O)CCCCCCCCCCC(O)CC3=CC(C)OC3=O)O2)O1 (stereo not shown) [Asimicin]
% T/C (3PS lymphocytic leukemia): 124 % T/C
9KB ED50 [1]: < 10^-5 μg/ml
9PS ED50 [2]: < 10^-7 μg/ml
pesticidal activity (stripped cucumber beetle): Promising pesticidal activity
pesticidal activity (Mexican bean beetle): Promising pesticidal activity
pesticidal activity (mosquito larvae): Promising pesticidal activity
pesticidal activity (blow fly larvae): Promising pesticidal activity
pesticidal activity (melon aphid): Promising pesticidal activity
pesticidal activity (two spotted spider mites): Promising pesticidal activity
pesticidal activity [3]: Promising pesticidal activity
toxic to mice at (mice): 6.25 mg/kg

CCCCCCC(O)CCCC(O)C1CCC(C2CCC(C(O)CCCCCCCCCCCCC3=CC(C)OC3=O)O2)O1 (stereo not shown) [isorollinicin]
in vitro cytotoxicity against P-388 [4]: in vitro cytotoxicity

CCCCCCCCCC[C@H](OC(C)=O)[C@H]1CC[C@H]([C@H]2CC[C@H]([C@H](O)CCCCCCCCCCCCC3=C[C@H](C)OC3=O)O2)O1 [Uvaricin]
activity in vivo against P-388 lymphocytic leukemia in mice [5]: demonstrated activity in vivo

CCCCCCCCCC[C@H](O)[C@H]1CC[C@H]([C@H]2CC[C@H]([C@H](O)CCCCCCCCCC[C@@H](O)CC3C[C@H](C)OC3=O)O2)O1 (stereo partly shown) [Dihydro-bullatacin]
LC50 [6]: 0.0145 µg/mL (≈ 23.2 nM)
IC50 [7]: < 0.001 ng/mL
IC50 [8]: 0.0333 ng/mL (≈ 0.0533 nM)

CCCCCCCCCC[C@H](OC(C)=O)[C@H]1CC[C@H]([C@H]2CC[C@H]([C@@H](CCCCCCCCCC[C@H](CC3=C[C@H](C)OC3=O)OC(C)=O)OC(C)=O)O2)O1 [Bullatacin triacetate]
LC50 [6]: 5.7 µg/mL
9KB ED50 [9]: 6.85e-07 µg/mL
IC50 [10]: 0.00389 µg/mL
IC50 [7]: 2 ng/mL
IC50 [8]: > 100 ng/mL

CCCCCCCCCC[C@H](OC(C)=O)[C@H]1CC[C@H]([C@H]2CC[C@H]([C@@H](CCCCCCCCCC[C@@H]3C[C@@H](CC(C)=O)C(=O)O3)OC(C)=O)O2)O1 [Bullatacinone diacetate]
LC50 [6]: > 10 µg/mL
9KB ED50 [9]: 5000 µg/mL
IC50 [10]: 0.0422 µg/mL
IC50 [7]: 28 ng/mL
IC50 [8]: 100 ng/mL

CCCCCCCCCC[C@H](O)[C@H]1CC[C@H]([C@H]2CC[C@H]([C@H](O)CCCCCCCCCCC3CC(CC(C)=O)C(=O)O3)O2)O1 (stereo partly shown) [Bullatacinone]
LC50 [6]: 0.003 µg/mL (≈ 4.82 nM)
9KB ED50 [9]: < 10^-12 mcg/ml
IC50 [10]: 0.00423 µg/mL (≈ 6.79 nM)
IC50 [7]: 1 ng/mL (≈ 1.61 nM)
selectivity of cytotoxicities (human tumor cell lines): more selective cytotoxicities than bullatacin
pesticidal activity (indicator organisms): lack of pesticidal activity

CCCCCCCCC[C@@H](O)[C@@H](O)[C@@H]1CC[C@@H]([C@@H]2CC[C@@H]([C@@H](O)CCCCCCCCCCCCC3=CC(C)OC3=O)O2)O1 (stereo partly shown) [rollinicin]
in vitro cytotoxicity against P-388 [4]: in vitro cytotoxicity

CCCCCCCCCCC(O)C1CCC(C2CCC(C(O)CCCCCCCCCCC(O)CC3=CC(C)OC3=O)O2)O1 (stereo not shown) [rolliniastatin]
life extension (PS): 28%
